Test results as given in ChEMBL document CHEMBL4052802, “Design, synthesis and biological evaluation of novel 3-oxo-4-oxa-5α-androst-17β-amide derivatives as dual 5α-reductase inhibitors and androgen receptor antagonists” (Bioorg Med Chem Lett, 2017).

Legend:
Rattus norvegicus = species on record: Rattus norvegicus; assay: Inhibition of rat liver 5alpha-reductase at 50 uM using testosterone as substrate incubated for 30 mins measured for 10 mins by fluorescence assay relative to control
PC-3 [1] = assay: Cytotoxicity against human PC3 cells after 48 hrs by MTT assay; assay type: functional, cell-based; conditions: PC-3, 48 h
LNCaP [2] = assay: Growth inhibition of human LNCAP cells at 80 uM after 48 hrs by MTT assay relative to control; assay type: functional; conditions: read-out: GI
PC-3 [3] = assay: Growth inhibition of human PC3 cells at 80 uM after 48 hrs by MTT assay relative to control; assay type: functional; conditions: PC-3, 48 h, read-out: GI
[4] = target: Androgen receptor (Homo sapiens) (UniProt P10275); assay: Inhibition of recombinant human His-tagged/GST-fused androgen receptor LBD expressed in baculovirus expression system at 50 uM measured after 1.5 hrs by fluorescence polarization assay relative to control
[5] = Inhibition of rat liver 5alpha-reductase using testosterone as substrate incubated for 30 mins measured for 10 mins by fluorescence assay
LNCaP [6] = assay: Cytotoxicity against human LNCAP cells after 48 hrs by MTT assay; assay type: functional, cell-based
[7] = Elimination half-life in Sprague-Dawley rat at 0.2 mg/kg, po by LC-MS/MS analysis; assay type: ADME, organism-based; conditions: in vivo, read-out: beta t1/2 (converted)
[8] = Tmax in Sprague-Dawley rat at 0.2 mg/kg, po by LC-MS/MS analysis; assay type: ADME, organism-based; conditions: in vivo
[9] = Cmax in Sprague-Dawley rat at 0.2 mg/kg, po by LC-MS/MS analysis; assay type: ADME, organism-based; set-up: dose 0.2 mg/kg, route oral; conditions: in vivo
[10] = AUC (0 to t) in Sprague-Dawley rat at 0.2 mg/kg, po by LC-MS/MS analysis; assay type: ADME, organism-based; conditions: in vivo
[11] = AUC (0 to infinity) in Sprague-Dawley rat at 0.2 mg/kg, po by LC-MS/MS analysis; assay type: ADME, organism-based; set-up: dose 0.2 mg/kg, route oral, time infinity; conditions: in vivo
Plasma = assay: Retention time in Sprague-Dawley rat plasma at 0.2 mg/kg, po measured after 24 hrs by total ion chromatographic method; assay type: ADME, organism-based; conditions: in vivo
[12] = target: T1, 3-oxo-5-alpha-steroid 4-dehydrogenase 1 (Homo sapiens, UniProt P18405); assay: Inhibition of recombinant human 5alpha-reductase type1 expressed in baculovirus expression system using [7-3H]T as substrate pretreated for 18 hrs followed by substrate addition measured after 90 mins by reverse-phase HPLC method
T1 sequence (P18405 whole entry): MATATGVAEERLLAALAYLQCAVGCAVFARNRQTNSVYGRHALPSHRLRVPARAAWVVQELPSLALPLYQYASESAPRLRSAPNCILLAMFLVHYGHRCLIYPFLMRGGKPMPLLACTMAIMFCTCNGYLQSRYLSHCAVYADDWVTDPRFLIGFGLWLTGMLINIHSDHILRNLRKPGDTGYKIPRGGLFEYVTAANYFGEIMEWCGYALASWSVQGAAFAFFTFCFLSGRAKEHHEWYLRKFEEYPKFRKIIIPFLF

[13] = target: T2, 3-oxo-5-alpha-steroid 4-dehydrogenase 2 (Homo sapiens, UniProt P31213); assay: Inhibition of recombinant human 5alpha-reductase type2 expressed in baculovirus expression system using [7-3H]T as substrate pretreated for 18 hrs followed by substrate addition by reverse-phase HPLC method
T2 sequence (P31213 whole entry): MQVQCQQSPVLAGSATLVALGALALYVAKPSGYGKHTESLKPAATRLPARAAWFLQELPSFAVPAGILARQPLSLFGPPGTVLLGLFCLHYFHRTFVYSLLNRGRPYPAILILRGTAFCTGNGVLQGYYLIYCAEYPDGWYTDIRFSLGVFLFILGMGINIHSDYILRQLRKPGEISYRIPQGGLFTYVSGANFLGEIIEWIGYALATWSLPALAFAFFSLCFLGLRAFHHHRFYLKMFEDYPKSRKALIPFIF

Androgen receptor [14] = target: T3, Androgen receptor (Homo sapiens, UniProt P10275); assay: Displacement of [3H]-DHT from recombinant human androgen receptor expressed in CHO cells; assay type: cell-based
T3 sequence (P10275 whole entry): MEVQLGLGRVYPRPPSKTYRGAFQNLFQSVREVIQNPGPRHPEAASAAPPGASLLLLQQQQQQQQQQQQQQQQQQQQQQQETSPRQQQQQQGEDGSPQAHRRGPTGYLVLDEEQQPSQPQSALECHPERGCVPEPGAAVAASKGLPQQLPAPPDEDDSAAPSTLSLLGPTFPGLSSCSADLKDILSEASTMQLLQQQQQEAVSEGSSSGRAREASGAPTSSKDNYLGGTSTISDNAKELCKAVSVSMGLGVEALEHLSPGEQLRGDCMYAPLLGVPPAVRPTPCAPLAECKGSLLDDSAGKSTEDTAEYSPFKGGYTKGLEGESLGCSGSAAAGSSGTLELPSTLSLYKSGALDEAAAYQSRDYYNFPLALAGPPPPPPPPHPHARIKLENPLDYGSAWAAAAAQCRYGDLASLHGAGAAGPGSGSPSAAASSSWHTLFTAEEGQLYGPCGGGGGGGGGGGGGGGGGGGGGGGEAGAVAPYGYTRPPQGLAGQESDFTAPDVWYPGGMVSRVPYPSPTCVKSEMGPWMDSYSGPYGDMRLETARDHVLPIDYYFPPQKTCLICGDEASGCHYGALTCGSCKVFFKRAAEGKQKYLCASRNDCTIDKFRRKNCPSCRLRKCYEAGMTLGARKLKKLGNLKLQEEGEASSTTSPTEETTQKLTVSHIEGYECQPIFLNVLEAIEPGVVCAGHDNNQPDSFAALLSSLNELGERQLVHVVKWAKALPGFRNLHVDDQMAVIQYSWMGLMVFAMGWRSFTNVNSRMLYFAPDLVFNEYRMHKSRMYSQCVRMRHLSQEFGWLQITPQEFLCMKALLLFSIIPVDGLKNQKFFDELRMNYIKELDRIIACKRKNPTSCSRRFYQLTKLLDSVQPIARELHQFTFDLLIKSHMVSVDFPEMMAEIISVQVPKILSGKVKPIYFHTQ

Androgen receptor [15] = target: T4, Androgen receptor (Rattus norvegicus, UniProt P15207); assay: Displacement of fluormone-AL Green from recombinant rat His-tagged/GST-fused androgen receptor LBD expressed in baculovirus expression system measured after 1.5 hrs by fluorescence polarization assay
T4 sequence (P15207 whole entry): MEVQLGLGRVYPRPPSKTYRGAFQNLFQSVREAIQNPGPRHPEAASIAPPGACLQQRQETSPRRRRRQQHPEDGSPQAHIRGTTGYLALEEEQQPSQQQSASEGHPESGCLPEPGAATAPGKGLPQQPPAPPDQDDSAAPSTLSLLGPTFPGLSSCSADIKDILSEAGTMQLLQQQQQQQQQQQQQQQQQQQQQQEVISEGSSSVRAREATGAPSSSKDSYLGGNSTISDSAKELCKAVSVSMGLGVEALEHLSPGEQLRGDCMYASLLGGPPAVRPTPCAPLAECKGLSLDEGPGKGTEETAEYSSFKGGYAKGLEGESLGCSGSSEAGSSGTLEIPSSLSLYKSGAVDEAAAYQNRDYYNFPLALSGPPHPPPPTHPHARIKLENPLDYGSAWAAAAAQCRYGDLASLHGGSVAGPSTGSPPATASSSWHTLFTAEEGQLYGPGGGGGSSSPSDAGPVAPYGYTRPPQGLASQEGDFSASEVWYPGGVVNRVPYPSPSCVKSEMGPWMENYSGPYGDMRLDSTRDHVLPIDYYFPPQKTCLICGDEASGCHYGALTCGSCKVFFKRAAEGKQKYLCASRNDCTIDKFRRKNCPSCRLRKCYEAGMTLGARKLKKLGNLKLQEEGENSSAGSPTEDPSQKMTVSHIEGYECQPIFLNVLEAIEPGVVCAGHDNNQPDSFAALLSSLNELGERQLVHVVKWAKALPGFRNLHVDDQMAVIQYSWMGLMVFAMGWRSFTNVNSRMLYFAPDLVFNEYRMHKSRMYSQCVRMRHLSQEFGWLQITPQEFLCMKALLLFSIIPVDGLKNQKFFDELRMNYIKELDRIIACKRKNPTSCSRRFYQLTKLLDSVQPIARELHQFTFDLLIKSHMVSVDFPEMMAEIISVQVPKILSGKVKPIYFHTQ

[16] = Selectivity ratio of IC50 for human PC3 cells to IC50 for human LNCAP cells; assay type: functional

Row | SMILES | inhibition (Rattus norvegicus) [%] | IC50 (PC-3 [1]) [µM] | inhibition of growth at 80 µM (LNCaP [2]) [%] | inhibition of growth at 80 µM (PC-3 [3]) [%] | inhibition [4] [%] | other results
1 | CC(C)(C)NC(=O)[C@H]1CC[C@H]2[C@@H]3CC[C@H]4OC(=O)CC[C@]4(C)[C@H]3CC[C@]12C | 48.3 | 70.1 | 37.3 | 28.1 | 3.73 | 
2 | C[C@]12CCC(=O)O[C@@H]1CC[C@@H]1[C@@H]2CC[C@]2(C)[C@@H](C(=O)N3CCCCC3)CC[C@@H]12 | 89.3 | 85.4 | 12.3 | 26.2 | 17.4 | IC50 [5]: 6.01 µM
3 | C[C@]12CCC(=O)O[C@@H]1CC[C@@H]1[C@@H]2CC[C@]2(C)[C@@H](C(=O)Nc3ccccc3)CC[C@@H]12 | 67.3 | 86.2 | 24.2 | 31.7 | 7.09 | 
4 | CCCCN(CCCC)C(=O)[C@H]1CC[C@H]2[C@@H]3CC[C@H]4OC(=O)CC[C@]4(C)[C@H]3CC[C@]12C | 36.5 | 40.1 | 88.9 | 89.9 | 11.8 | IC50 (LNCaP [6]): 32.4 µM
5 | CC(C)(C)NC(=O)[C@H]1CC[C@H]2[C@@H]3CC[C@H]4NC(=O)C=C[C@]4(C)[C@H]3CC[C@]12C [FINASTERIDE] | 94.3 | > 80 |  | 0.4 |  | IC50 [5]: 0.59 µM; half-life [7]: 3.91 h; Tmax [8]: 2.67 h; Cmax [9]: 4.19 ng/mL; AUC(0-t) [10]: 23.5 ng·h/mL; AUC(0-inf) [11]: 23.8 ng·h/mL; Retention_time (Plasma): 3.5 min
6 | C[C@]12CCC(=O)O[C@@H]1CC[C@@H]1[C@@H]2CC[C@]2(C)[C@@H](C(=O)Nc3ccc(F)cc3)CC[C@@H]12 | 46.9 | 50 | 39.7 | 46.3 | 18.9 | 
7 | CCN(CC)C(=O)[C@H]1CC[C@H]2[C@@H]3CC[C@H]4OC(=O)CC[C@]4(C)[C@H]3CC[C@]12C | 39.5 | 68.2 | 42.7 | 27.9 | 33.7 | 
8 | CN(C(=O)[C@H]1CC[C@H]2[C@@H]3CC[C@H]4OC(=O)CC[C@]4(C)[C@H]3CC[C@]12C)c1ccccc1 | 84.2 | 62.2 | 30 | 35.1 | 14.3 | IC50 [5]: 0.89 µM
9 | C[C@]12CCC(=O)N[C@@H]1CC[C@@H]1[C@@H]2CC[C@]2(C)[C@@H](C(=O)Nc3ccccc3)CC[C@@H]12 |  |  |  |  |  | IC50 [12]: 0.41 µM; IC50 [13]: 0.015 µM; IC50 (Androgen receptor [14]): 23 µM
10 | C[C@H]1CC(=O)C[C@@H]2CC[C@H]3[C@@H]4CC[C@H](O)[C@@]4(C)CC[C@@H]3[C@]21C [MESTEROLONE] |  |  |  |  |  | IC50 (Androgen receptor [15]): 18.3 µM
11 | CC(C)C(=O)Nc1ccc([N+](=O)[O-])c(C(F)(F)F)c1 [FLUTAMIDE] |  | 67.3 | 63 | 21.2 |  | IC50 (LNCaP [6]): 47.6 µM
12 | C[C@]12CCC(=O)O[C@@H]1CC[C@@H]1[C@@H]2CC[C@]2(C)[C@@H](C(=O)N(c3ccccc3)c3ccccc3)CC[C@@H]12 | 15.5 | 75.2 | 31.4 | 35.4 | 3.29 | 
13 | C[C@]12CCC(=O)O[C@@H]1CC[C@@H]1[C@@H]2CC[C@]2(C)[C@@H](C(=O)N(C3CCCCC3)C3CCCCC3)CC[C@@H]12 | 33.4 | 74.3 | 13.8 | 32 | 11.3 | 
14 | C[C@]12CCC(=O)O[C@@H]1CC[C@@H]1[C@@H]2CC[C@]2(C)[C@@H](C(=O)N(Cc3ccccc3)Cc3ccccc3)CC[C@@H]12 | 69.8 | 127 | 81.8 | 12.9 | 57.1 | IC50 (Androgen receptor [15]): 16.8 µM; IC50 (LNCaP [6]): 29.8 µM; Ratio IC50 [16]: 4
